Our source for the Activity, EC50 and Tm values is ChEMBL document CHEMBL3390848, “Affinity selection and sequence-activity relationships of HIV-1 membrane fusion inhibitors directed at the drug-resistant variants” (Medchemcomm, 2010).

Residues, ends and D or L forms follow the SMILES beside them.

Experiment [1] concerns Human immunodeficiency virus 1. Kind of experiment: Binding affinity to HIV1 His-tagged N-terminal heptad repeat of envelope glycoprotein gp41 assessed as recovery of N36-drug complex at 10 uM after 2 hrs by LC-MS analysis.
The subject of experiment [2] is Human immunodeficiency virus 1. Kind of experiment: Binding affinity to HIV1 His-tagged N-terminal heptad repeat of envelope glycoprotein gp41 assessed as recovery of N36-drug complex at 6 uM after 2 hrs by LC-MS analysis.
Experiment [3] deals with Human immunodeficiency virus 1. Kind of experiment: Binding affinity to HIV1 His-tagged N-terminal heptad repeat of envelope glycoprotein gp41 assessed as recovery of N36-drug complex at 1 uM after 2 hrs by LC-MS analysis.
Experiment [4] relates to Human immunodeficiency virus 1. Description: Binding affinity to HIV1 His-tagged N-terminal heptad repeat of envelope glycoprotein gp41 assessed as recovery of N36-drug complex at 0.6 uM after 2 hrs by LC-MS analysis.
Experiment [5] concerns Human immunodeficiency virus 1. Description: Antiviral activity against HIV1 NL4-3 harboring gp41 D36G mutant infected in human HeLa cells expressing CD4-LTR-beta-gal assessed as inhibition of viral replication after 48 hrs by MAGI assay. In kind it is functional, organism-based.
The test system of experiment [6] is Human immunodeficiency virus 1. Kind of experiment: Thermal stability of HIV1 envelope glycoprotein gp41 His-tagged N-terminal heptad repeat N36-drug complex assessed as thermal unfolding transition state by measuring molar ellipticity at 4 to 90 degC by circular dichroic spectra analysis.
In experiment [7] the test system is Envelope glycoprotein gp160 (Human immunodeficiency virus 1), Q72502 [V38A]. Kind of experiment: Binding affinity to HIV1 His-tagged N-terminal heptad repeat of envelope glycoprotein gp41 assessed as recovery of N36 V38A mutant-drug complex after 2 hrs by LC-MS analysis. On the set-up: concentration or dose not given beside the values.
The test system of experiment [8] is Human immunodeficiency virus 1. Kind of experiment: Binding affinity to HIV1 His-tagged N-terminal heptad repeat of envelope glycoprotein gp41 assessed as recovery of N36 N43D mutant-drug complex after 2 hrs by LC-MS analysis. Also noted: concentration or dose not given beside the values.
For experiment [9], the system named is Envelope glycoprotein gp160 (Human immunodeficiency virus 1), Q72502 [V38A]. Description: Thermal stability of HIV1 envelope glycoprotein gp41 His-tagged N-terminal heptad repeat N36 V38A mutant-drug complex assessed as thermal unfolding transition state by measuring molar ellipticity at 4 to 90 degC by circular dichroic spectra analysis.
Experiment [10] concerns Human immunodeficiency virus 1. Kind of experiment: Thermal stability of HIV1 envelope glycoprotein gp41 His-tagged N-terminal heptad repeat N36 N43D mutant-drug complex assessed as thermal unfolding transition state by measuring molar ellipticity at 4 to 90 degC by circular dichroic spectra analysis.
Experiment [11] relates to Human immunodeficiency virus 1. Kind of experiment: Binding affinity to HIV1 His-tagged N-terminal heptad repeat of envelope glycoprotein gp41 assessed as recovery of N36-drug complex after 2 hrs by LC-MS analysis. Also noted: concentration or dose not given beside the values.

As a reminder, the EC50 is the concentration needed to bring the measured effect to its halfway point. What is called Tm is the temperature at the midpoint of the melting transition. Turning to `CC[C@H](C)[C@H](NC(=O)[C@H](CCCCN)NC(=O)[C@H](CCCCN)NC(=O)[C@H](CC(=O)O)NC(=O)[C@H](Cc1c[nH]c2ccccc12)NC(=O)[C@H](CCC(=O)O)NC(=O)[C@H](CCC(=O)O)NC(=O)[C@H](Cc1c[nH]c2ccccc12)NC(C)=O)C(=O)N[C@@H](CCC(=O)O)C(=O)N[C@@H](CCC(=O)O)C(=O)N[C@@H](Cc1ccc(O)cc1)C(=O)N[C@H](C(=O)N[C@@H](CCCCN)C(=O)N[C@@H](CCCCN)C(=O)N[C@H](C(=O)N[C@@H](CCC(=O)O)C(=O)N[C@@H](CCC(=O)O)C(=O)N[C@@H](CC(C)C)C(=O)N[C@H](C(=O)N[C@@H](CCCCN)C(=O)N[C@@H](CCCCN)C(=O)N1CCC[C@H]1C(=O)N[C@@H](CCC(=O)O)C(=O)N[C@@H](CCC(=O)O)C(=O)N[C@@H](CCC(N)=O)C(=O)N[C@@H](CCC(N)=O)C(=O)N[C@@H](CCCCN)C(=O)N[C@@H](CCCCN)C(=O)N[C@@H](CC(N)=O)C(=O)N[C@@H](CCC(=O)O)C(=O)N[C@@H](CCC(=O)O)C(=O)N[C@@H](CCC(=O)O)C(=O)N[C@@H](CC(C)C)C(=O)N[C@@H](CCCCN)C(=O)N[C@@H](CCCCN)C(N)=O)[C@@H](C)CC)[C@@H](C)CC)[C@@H](C)O` (Ac-WEEWDKKIEEYTKKIEELIKKPEEQQKKNEEELKK-NH2), the Activity in experiment [1] was found to be 0.4%; in experiment [2], 0.2%; in experiment [3], 0.1%; in experiment [4], 4.5%; in [7] it was 0.4%; in experiment [8] it was 0.3%. Besides, the half-maximal effective concentration (EC50) in experiment [5] was determined as 35 nM. Also, the Tm was 56.1 °C in experiment [6], 56.3 °C in experiment [9] and 55.6 °C in experiment [10].
In the case of `CC[C@H](C)[C@H](NC(=O)[C@H](CC(C)C)NC(=O)[C@H](CCC(=O)O)NC(=O)[C@H](CCC(=O)O)NC(=O)[C@@H](NC(=O)[C@H](CCCCN)NC(=O)[C@H](CCCCN)NC(=O)[C@@H](NC(=O)[C@H](Cc1ccc(O)cc1)NC(=O)[C@H](CCC(=O)O)NC(=O)[C@H](CCC(=O)O)NC(=O)[C@@H](NC(=O)[C@H](CCCCN)NC(=O)[C@H](CCCCN)NC(=O)[C@H](CC(=O)O)NC(=O)[C@H](Cc1c[nH]c2ccccc12)NC(=O)[C@H](CCC(=O)O)NC(=O)[C@H](CCC(=O)O)NC(=O)[C@H](Cc1c[nH]c2ccccc12)NC(C)=O)[C@@H](C)CC)[C@@H](C)O)[C@@H](C)CC)C(=O)N[C@@H](CCCCN)C(=O)N[C@@H](CCCCN)C(=O)N[C@@H](CO)C(=O)N[C@@H](CCC(=O)O)C(=O)N[C@@H](CCC(=O)O)C(=O)N[C@@H](CCC(N)=O)C(=O)N[C@@H](CCC(N)=O)C(=O)N[C@@H](CCCCN)C(=O)N[C@@H](CCCCN)C(=O)N[C@@H](CC(N)=O)C(=O)N[C@@H](CCC(=O)O)C(=O)N[C@@H](CCC(=O)O)C(=O)N[C@@H](CCC(=O)O)C(=O)N[C@@H](CC(C)C)C(=O)N[C@@H](CCCCN)C(=O)N[C@@H](CCCCN)C(N)=O` (Ac-WEEWDKKIEEYTKKIEELIKKSEEQQKKNEEELKK-NH2), the Activity was 22.8% in experiment [1]; 19.2% in [2]; 11.5% in [3]; 5.8% in experiment [4]; 11.8% in experiment [7]; 10.9% in [8]. Moreover, the Activity in experiment [11] came to 10.1%. Besides, the EC50 in experiment [5] was found to be 1 nM. In addition, the midpoint of thermal melting (Tm) was found to be 81.6 °C in [6], 72.6 °C in [9] and 69.9 °C in experiment [10].
As for `CC[C@H](C)[C@H](NC(=O)[C@H](CCCCN)NC(=O)[C@H](CCCCN)NC(=O)[C@H](CC(=O)O)NC(=O)[C@H](Cc1c[nH]c2ccccc12)NC(=O)[C@H](CCC(=O)O)NC(=O)[C@H](CCC(=O)O)NC(=O)[C@H](Cc1c[nH]c2ccccc12)NC(C)=O)C(=O)N[C@@H](CCC(=O)O)C(=O)N[C@@H](CCC(=O)O)C(=O)N[C@@H](Cc1ccc(O)cc1)C(=O)N[C@H](C(=O)N[C@@H](CCCCN)C(=O)N[C@@H](CCCCN)C(=O)N[C@H](C(=O)N[C@@H](CCC(=O)O)C(=O)N[C@@H](CCC(=O)O)C(=O)N[C@@H](CC(C)C)C(=O)N[C@H](C(=O)N[C@@H](CCCCN)C(=O)N[C@@H](CCCCN)C(=O)N[C@H](C(=O)N[C@@H](CCC(=O)O)C(=O)N[C@@H](CCC(=O)O)C(=O)N[C@@H](CCC(N)=O)C(=O)N[C@@H](CCC(N)=O)C(=O)N[C@@H](CCCCN)C(=O)N[C@@H](CCCCN)C(=O)N[C@@H](CC(N)=O)C(=O)N[C@@H](CCC(=O)O)C(=O)N[C@@H](CCC(=O)O)C(=O)N[C@@H](CCC(=O)O)C(=O)N[C@@H](CC(C)C)C(=O)N[C@@H](CCCCN)C(=O)N[C@@H](CCCCN)C(N)=O)[C@@H](C)O)[C@@H](C)CC)[C@@H](C)CC)[C@@H](C)O` (Ac-WEEWDKKIEEYTKKIEELIKKTEEQQKKNEEELKK-NH2), the Activity in experiment [1] amounted to 9%; in experiment [2], 12.8%; in [3], 11.7%; in [4] it was 5.7%; in experiment [7], 10.8%; in [8] it was 9.4%. Besides, the 50% effective concentration (EC50) in experiment [5] is 0.8 nM. The melting temperature (Tm) in experiment [6] worked out at 79.7 °C; in experiment [9] it was 70.4 °C; in [10] it was 67.5 °C.
Consider `CC[C@H](C)[C@H](NC(=O)[C@H](CC(C)C)NC(=O)[C@H](CCC(=O)O)NC(=O)[C@H](CCC(=O)O)NC(=O)[C@@H](NC(=O)[C@H](CCCCN)NC(=O)[C@H](CCCCN)NC(=O)[C@@H](NC(=O)[C@H](Cc1ccc(O)cc1)NC(=O)[C@H](CCC(=O)O)NC(=O)[C@H](CCC(=O)O)NC(=O)[C@@H](NC(=O)[C@H](CCCCN)NC(=O)[C@H](CCCCN)NC(=O)[C@H](CC(=O)O)NC(=O)[C@H](Cc1c[nH]c2ccccc12)NC(=O)[C@H](CCC(=O)O)NC(=O)[C@H](CCC(=O)O)NC(=O)[C@H](Cc1c[nH]c2ccccc12)NC(C)=O)[C@@H](C)CC)[C@@H](C)O)[C@@H](C)CC)C(=O)N[C@@H](CCCCN)C(=O)N[C@@H](CCCCN)C(=O)N[C@@H](Cc1c[nH]c2ccccc12)C(=O)N[C@@H](CCC(=O)O)C(=O)N[C@@H](CCC(=O)O)C(=O)N[C@@H](CCC(N)=O)C(=O)N[C@@H](CCC(N)=O)C(=O)N[C@@H](CCCCN)C(=O)N[C@@H](CCCCN)C(=O)N[C@@H](CC(N)=O)C(=O)N[C@@H](CCC(=O)O)C(=O)N[C@@H](CCC(=O)O)C(=O)N[C@@H](CCC(=O)O)C(=O)N[C@@H](CC(C)C)C(=O)N[C@@H](CCCCN)C(=O)N[C@@H](CCCCN)C(N)=O` (Ac-WEEWDKKIEEYTKKIEELIKKWEEQQKKNEEELKK-NH2), for which the Activity in experiment [1] was 0.5%; in [2] it was 0.3%; in experiment [3], 0.9%; in [4], 6.2%; in [7], 1%; in [8] it was 2.4%. Also, the concentration giving a half-maximal response (EC50) in [5] turned out to be 3.1 nM. The results for the Tm in experiment [6], in experiment [9] and in experiment [10] were 66.4 °C, 64.6 °C and 66 °C, respectively.
